Key:
Type in all cases: cell-based
Proteus mirabilis = assay: MIC against Gram-negative bacteria: Proteus mirabilis; details: for MIC against P. mirabilis / MIC P. mirabilis / MIC (μg/mL) P. mirabilis: 5×10^5 CFU/mL; for MIC P. mirabilis: two-fold serial dilution
Outline: (§1)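 Antibacterial activity of purified human EGF domain proteins: two-fold concentration series, triplicate wells, LB broth, 5×10^5 CFU/mL bacteria, 37° C shaking incubation. The lowest concentration without growth defines the MIC.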

Proteus vulgaris = assay: MIC against Gram-negative bacteria: Proteus vulgaris; details: for MIC against P. vulgaris / MIC P. vulgaris / MIC (μg/mL) P. vulgaris: 5×10^5 CFU/mL; for MIC P. vulgaris: two-fold serial dilution
Outline: as §1

Aeromonas hydrophila = assay: MIC against Gram-negative bacteria: Aeromonas hydrophila; details: for MIC against A. hydrophila / MIC A. hydrophila / MIC (μg/mL) A. hydrophila: 5×10^5 CFU/mL; for MIC A. hydrophila: two-fold serial dilution
Outline: as §1

Pseudomonas aeruginosa = assay: MIC against Gram-negative bacteria: Pseudomonas aeruginosa; details: for MIC against P. aeruginosa / MIC P. aeruginosa / MIC (μg/mL) P. aeruginosa: 5×10^5 CFU/mL; for MIC P. aeruginosa: two-fold serial dilution
Outline: as §1

Citrobacter diversus = assay: MIC against Gram-negative bacteria: Citrobacter diversus; details: for MIC against C. diversus / MIC C. diversus / MIC (μg/mL) C. diversus: 5×10^5 CFU/mL; for MIC C. diversus: two-fold serial dilution
Outline: as §1

E. coli BL21 = assay: MIC against Gram-negative bacteria: E. coli BL21; details: for MIC against E. coli BL21 / MIC E. coli BL21 / MIC (μg/mL) E. coli BL21: 5×10^5 CFU/mL; for MIC E. coli BL21: two-fold serial dilution
Outline: as §1

E. coli DH5α = assay: Antibacterial activity: MIC and growth curve against E. coli DH5α in 96-well plate; details: minimal inhibitory concentration against E. coli DH5α; 96-well plate, 5×10^5 CFU/mL, 37° C., judged after 8 h
Outline: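 Log-phase bacteria (OD600 ~0.5) resuspended in LB at 5×10^5 CFU/mL, exposed to recombinant protein at 50, 25, 12.5 μg/mL final in triplicate, 37 °C shaking at 175 rpm. OD600 read every 30 min; MIC is lowest concentration showing no growth.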

Klebsiella pneumonia = assay: MIC against Gram-negative bacteria: Klebsiella pneumonia; details: for MIC against K. pneumonia / MIC K. pneumonia / MIC (μg/mL) K. pneumonia: 5×10^5 CFU/mL; for MIC K. pneumonia: two-fold serial dilution
Outline: as §1

Serratia marcescens = assay: MIC against Gram-negative bacteria: Serratia marcescens; details: for MIC against S. marcescens / MIC S. marcescens / MIC (μg/mL) S. marcescens: 5×10^5 CFU/mL; for MIC S. marcescens: two-fold serial dilution
Outline: as §1

Moraxella catarrhalis = assay: MIC against Gram-negative bacteria: Moraxella catarrhalis; details: for MIC against M. catarrhalis / MIC M. catarrhalis / MIC (μg/mL) M. catarrhalis: 5×10^5 CFU/mL; for MIC M. catarrhalis: two-fold serial dilution
Outline: as §1

Enterobacter cloacae = assay: MIC against Gram-negative bacteria: Enterobacter cloacae; details: for MIC against E. cloacae / MIC E. cloacae / MIC (μg/mL) E. cloacae: 5×10^5 CFU/mL; for MIC E. cloacae: two-fold serial dilution
Outline: as §1

[1] = Proteus mirabilis, 96-well plate, 37° C., 10 h
[2] = Proteus vulgaris, 96-well plate, 37° C., 10 h
[3] = Aeromonas hydrophila, 96-well plate, 37° C., 10 h
[4] = Pseudomonas aeruginosa, 96-well plate, 37° C., 10 h
[5] = Citrobacter diversus, 96-well plate, 37° C., 10 h
[6] = E. coli BL21, 96-well plate, 37° C., 10 h
[7] = Klebsiella pneumonia, 96-well plate, 37° C., 10 h
[8] = Serratia marcescens, 96-well plate, 37° C., 10 h
[9] = Moraxella catarrhalis, 96-well plate, 37° C., 10 h
[10] = Enterobacter cloacae, 96-well plate, 37° C., 10 h
[11] = Proteus mirabilis, 10 h cultivation at 37° C.
[12] = Proteus vulgaris, 10 h cultivation at 37° C.
[13] = Aeromonas hydrophila, 10 h cultivation at 37° C.
[14] = Pseudomonas aeruginosa, 10 h cultivation at 37° C.
[15] = Citrobacter diversus, 10 h cultivation at 37° C.
[16] = E. coli BL21, 10 h cultivation at 37° C.
[17] = Klebsiella pneumonia, 10 h cultivation at 37° C.
[18] = Serratia marcescens, 10 h cultivation at 37° C.
[19] = Moraxella catarrhalis, 10 h cultivation at 37° C.
[20] = Enterobacter cloacae, 10 h cultivation at 37° C.
[21] = P. mirabilis, 10 h cultivation at 37° C.
[22] = P. vulgaris, 10 h cultivation at 37° C.
[23] = A. hydrophila, 10 h cultivation at 37° C.
[24] = P. aeruginosa, 10 h cultivation at 37° C.
[25] = C. diversus, 10 h cultivation at 37° C.
[26] = K. pneumonia, 10 h cultivation at 37° C.
[27] = S. marcescens, 10 h cultivation at 37° C.
[28] = M. catarrhalis, 10 h cultivation at 37° C.
[29] = E. cloacae, 10 h cultivation at 37° C.

Substance	MIC against P. mirabilis (Proteus mirabilis; [1]) [µg/mL]	MIC against P. vulgaris (Proteus vulgaris; [2]) [µg/mL]	MIC against A. hydrophila (Aeromonas hydrophila; [3]) [µg/mL]	MIC against P. aeruginosa (Pseudomonas aeruginosa; [4]) [µg/mL]	MIC against C. diversus (Citrobacter diversus; [5]) [µg/mL]	MIC against E. coli BL21 (E. coli BL21; [6]) [µg/mL]	MIC (E. coli DH5α) [µg/mL]	MIC against K. pneumonia (Klebsiella pneumonia; [7]) [µg/mL]	MIC against S. marcescens (Serratia marcescens; [8]) [µg/mL]	MIC against M. catarrhalis (Moraxella catarrhalis; [9]) [µg/mL]	MIC against E. cloacae (Enterobacter cloacae; [10]) [µg/mL]	further results
PRT1210 (SVNPCSSKPCLYGGTCVVDNGGFVCQCRGLYTGQRCQ; listed as Homo sapiens)	12.5	25	25	25	12.5	12.5	25	12.5	12.5	25	25	–
PRT1110 (RREQCRPLPCVHGGSCVDLWTHFRCDCARPHRGPTCA; listed as Homo sapiens)	–	–	–	–	–	–	25	–	–	–	–	MIC P. mirabilis (Proteus mirabilis; 10 h cultivation at 37° C.): 25 µg/mL; MIC P. vulgaris (Proteus vulgaris; 10 h cultivation at 37° C.): 50 µg/mL; MIC A. hydrophila (Aeromonas hydrophila; 10 h cultivation at 37° C.): 12.5 µg/mL; MIC P. aeruginosa (Pseudomonas aeruginosa; 10 h cultivation at 37° C.): 25 µg/mL; MIC C. diversus (Citrobacter diversus; 10 h cultivation at 37° C.): 50 µg/mL; MIC E. coli BL21 (E. coli BL21; 10 h cultivation at 37° C.): 50 µg/mL; MIC K. pneumonia (Klebsiella pneumonia; 10 h cultivation at 37° C.): 12.5 µg/mL; MIC S. marcescens (Serratia marcescens; 10 h cultivation at 37° C.): 25 µg/mL; MIC M. catarrhalis (Moraxella catarrhalis; 10 h cultivation at 37° C.): 12.5 µg/mL; MIC E. cloacae (Enterobacter cloacae; 10 h cultivation at 37° C.): 50 µg/mL
PRT1319 (SMGDCGPTGLAQHCHLHARCVSQEGVARCRCLDGFEGDGFS; listed as Homo sapiens)	25	12.5	25	12.5	12.5	50	12.5	25	12.5	25	25	–
PRT1265 (DVDECLENNGGCQHTCVNVMGSYECCCKEGFFLSDNQHTCI; listed as Homo sapiens)	12.5	50	50	25	25	50	25	12.5	12.5	12.5	25	–
PRT1067 (KLTSCATNASICGDEARCVRTEKAAYCACRSGFHTVPGQPGCQ; listed as Homo sapiens)	–	–	–	–	–	–	25	–	–	–	–	MIC P. mirabilis (Proteus mirabilis; 10 h cultivation at 37° C.): 25 µg/mL; MIC P. vulgaris (Proteus vulgaris; 10 h cultivation at 37° C.): 50 µg/mL; MIC A. hydrophila (Aeromonas hydrophila; 10 h cultivation at 37° C.): 25 µg/mL; MIC P. aeruginosa (Pseudomonas aeruginosa; 10 h cultivation at 37° C.): 25 µg/mL; MIC C. diversus (Citrobacter diversus; 10 h cultivation at 37° C.): 25 µg/mL; MIC E. coli BL21 (E. coli BL21; 10 h cultivation at 37° C.): 50 µg/mL; MIC K. pneumonia (Klebsiella pneumonia; 10 h cultivation at 37° C.): 12.5 µg/mL; MIC S. marcescens (Serratia marcescens; 10 h cultivation at 37° C.): 25 µg/mL; MIC M. catarrhalis (Moraxella catarrhalis; 10 h cultivation at 37° C.): 12.5 µg/mL; MIC E. cloacae (Enterobacter cloacae; 10 h cultivation at 37° C.): 25 µg/mL
PRT1485 (DVNECRRPLERRVCHHSCHNTVGSFLCTCRPGFRLRADRVSCE; listed as Homo sapiens)	–	–	–	–	–	–	12.5	–	–	–	–	MIC against P. mirabilis (Proteus mirabilis; [11]): 12.5 µg/mL; MIC against P. vulgaris (Proteus vulgaris; [12]): 12.5 µg/mL; MIC against A. hydrophila (Aeromonas hydrophila; [13]): 50 µg/mL; MIC against P. aeruginosa (Pseudomonas aeruginosa; [14]): 12.5 µg/mL; MIC against C. diversus (Citrobacter diversus; [15]): 12.5 µg/mL; MIC against E. coli BL21 (E. coli BL21; [16]): 50 µg/mL; MIC against K. pneumonia (Klebsiella pneumonia; [17]): 12.5 µg/mL; MIC against S. marcescens (Serratia marcescens; [18]): 12.5 µg/mL; MIC against M. catarrhalis (Moraxella catarrhalis; [19]): 50 µg/mL; MIC against E. cloacae (Enterobacter cloacae; [20]): 12.5 µg/mL
PRT1022 (DIDECSEQPSVCGSHTICNNHPGTFRCECVEGYQFSDEGTCV; listed as Homo sapiens)	–	–	–	–	–	–	12.5	–	–	–	–	MIC (Proteus mirabilis; [21]): 50 µg/mL; MIC (Proteus vulgaris; [22]): 12.5 µg/mL; MIC (Aeromonas hydrophila; [23]): 25 µg/mL; MIC (Pseudomonas aeruginosa; [24]): 12.5 µg/mL; MIC (Citrobacter diversus; [25]): 50 µg/mL; MIC (E. coli BL21; [16]): 50 µg/mL; MIC (Klebsiella pneumonia; [26]): 25 µg/mL; MIC (Serratia marcescens; [27]): 12.5 µg/mL; MIC (Moraxella catarrhalis; [28]): 12.5 µg/mL; MIC (Enterobacter cloacae; [29]): 25 µg/mL
PRT1297 (NACLSSPCKNNGTCTQDPVELYRCACPYSYKGKDCT; listed as Homo sapiens)	25	12.5	12.5	12.5	25	50	12.5	25	50	50	50	–
PRT1343 (VFHECFFNPCHNSGTCQQLGRGYVCLCPLGYTGLKCE; listed as Homo sapiens)	12.5	25	12.5	50	50	25	12.5	25	50	25	25	–
PRT1403 (SVVECPRNCHGNGECVSGTCHCFPGFLGPDCS; listed as Homo sapiens)	–	–	–	–	–	–	50	–	–	–	–	MIC against P. mirabilis (Proteus mirabilis; [11]): 50 µg/mL; MIC against P. vulgaris (Proteus vulgaris; [12]): 12.5 µg/mL; MIC against A. hydrophila (Aeromonas hydrophila; [13]): 25 µg/mL; MIC against P. aeruginosa (Pseudomonas aeruginosa; [14]): 50 µg/mL; MIC against C. diversus (Citrobacter diversus; [15]): 50 µg/mL; MIC against E. coli BL21 (E. coli BL21; [16]): 12.5 µg/mL; MIC against K. pneumonia (Klebsiella pneumonia; [17]): 12.5 µg/mL; MIC against S. marcescens (Serratia marcescens; [18]): 50 µg/mL; MIC against M. catarrhalis (Moraxella catarrhalis; [19]): 12.5 µg/mL; MIC against E. cloacae (Enterobacter cloacae; [20]): 25 µg/mL
PRT118 (DVDECVGPGGPLCDSLCFNTQGSFHCGCLPGWVLAPNGVSCT; listed as Homo sapiens)	–	–	–	–	–	–	12.5	–	–	–	–	MIC (μg/mL) P. mirabilis (Proteus mirabilis; [1]): 12.5 µg/mL; MIC (μg/mL) P. vulgaris (Proteus vulgaris; [2]): 25 µg/mL; MIC (μg/mL) A. hydrophila (Aeromonas hydrophila; [3]): 12.5 µg/mL; MIC (μg/mL) P. aeruginosa (Pseudomonas aeruginosa; [4]): 12.5 µg/mL; MIC (μg/mL) C. diversus (Citrobacter diversus; [5]): 12.5 µg/mL; MIC (μg/mL) E. coli BL21 (E. coli BL21; [6]): 12.5 µg/mL; MIC (μg/mL) K. pneumonia (Klebsiella pneumonia; [7]): 12.5 µg/mL; MIC (μg/mL) S. marcescens (Serratia marcescens; [8]): 12.5 µg/mL; MIC (μg/mL) M. catarrhalis (Moraxella catarrhalis; [9]): 25 µg/mL; MIC (μg/mL) E. cloacae (Enterobacter cloacae; [10]): 12.5 µg/mL
PRT834 (DCADSPCCQQVCTNNPGGYECGCYAGYRLSADGCGCE; listed as Homo sapiens)	–	–	–	–	–	–	50	–	–	–	–	MIC (μg/mL) P. mirabilis (Proteus mirabilis; [21]): 50 µg/mL; MIC (μg/mL) P. vulgaris (Proteus vulgaris; [22]): 12.5 µg/mL; MIC (μg/mL) A. hydrophila (Aeromonas hydrophila; [23]): 25 µg/mL; MIC (μg/mL) P. aeruginosa (Pseudomonas aeruginosa; [24]): 12.5 µg/mL; MIC (μg/mL) C. diversus (Citrobacter diversus; [25]): 12.5 µg/mL; MIC (μg/mL) E. coli BL21 (E. coli BL21; [16]): 25 µg/mL; MIC (μg/mL) K. pneumonia (Klebsiella pneumonia; [26]): 25 µg/mL; MIC (μg/mL) S. marcescens (Serratia marcescens; [27]): 25 µg/mL; MIC (μg/mL) M. catarrhalis (Moraxella catarrhalis; [28]): 25 µg/mL; MIC (μg/mL) E. cloacae (Enterobacter cloacae; [29]): 50 µg/mL
PRT1290 (KCNPCLSNPCKNDGTCNSDPVDFYRCTCPYGFKGQDCD; listed as Homo sapiens)	50	12.5	25	50	12.5	12.5	50	12.5	12.5	25	50	–
